26 molecules from US20180186742A1, “PICOLINAMIDES AS FUNGICIDES” (Dow AgroSciences LLC, priority 2017, published 2018) can be followed below.

Read-outs that look alike come from different tables or passages of the source.

Assay [1] has as its system Zymoseptoria tritici. Kind of assay: Leaf blotch of wheat (SEPTTR), disease control on wheat seedlings. The format is in vivo. Particulars: high volume application at 100 ppm. The method, then: Technical grades of materials were dissolved in acetone, which were then mixed with nine volumes of water containing 110 ppm Triton X-100. The fungicide solutions were applied onto wheat seedlings using an automated booth sprayer to run-off. All sprayed plants were allowed to air dry prior to further handling. All fungicides were evaluated using the aforementioned method for their activity vs. all target diseases, unless stated otherwise. Wheat leaf blotch and brown rust activity were also evaluated using track spray applications, in which case the fungicides were formulated as EC formulations, containing 0.1% Trycol 5941 in the spray solutions. Wheat plants (variety Yuma) were grown from seed in a greenhouse in 50% mineral soil/50% soil-less Metro mix until the first leaf was fully emerged, with 7-10 seedlings per pot. These plants were inoculated with an aqueous spore suspension of Zymoseptoria tritici either prior to or after fungicide treatments. After inoculation the plants were kept in 100% relative humidity (one day in a dark dew chamber followed by two to three days in a lighted dew chamber at 20° C.) to permit spores to germinate and infect the leaf. The plants were then transferred to a greenhouse set at 20° C. for disease to develop. When disease symptoms were fully expressed on the 1st leaves of untreated plants, infection levels were assessed on a scale of 0 to 100 percent disease severity. Percent disease control was calculated using the ratio of disease severity on treated plants relative to untreated plants.

In assay [2] the test system is Puccinia triticina. Put plainly: Wheat brown rust (PUCCRT), disease control on wheat seedlings. The format is in vivo. Particulars: high volume application at 100 ppm. The method, then: Technical grades of materials were dissolved in acetone, which were then mixed with nine volumes of water containing 110 ppm Triton X-100. The fungicide solutions were applied onto wheat seedlings using an automated booth sprayer to run-off. All sprayed plants were allowed to air dry prior to further handling. All fungicides were evaluated using the aforementioned method for their activity vs. all target diseases, unless stated otherwise. Wheat leaf blotch and brown rust activity were also evaluated using track spray applications, in which case the fungicides were formulated as EC formulations, containing 0.1% Trycol 5941 in the spray solutions. Wheat plants (variety Yuma) were grown from seed in a greenhouse in 50% mineral soil/50% soil-less Metro mix until the first leaf was fully emerged, with 7-10 seedlings per pot. These plants were inoculated with an aqueous spore suspension of Puccinia triticina either prior to or after fungicide treatments. After inoculation the plants were kept in a dark dew room at 22° C. with 100% relative humidity overnight to permit spores to germinate and infect the leaf. The plants were then transferred to a greenhouse set at 24° C. for disease to develop. Fungicide formulation, application and disease assessment followed the procedures as described in the Example A.

Setting [3] is: 24 h, 1 Day Protectant, read-out: SEPTTR disease control, 1DP, HV activity.
[4] abbreviates: 72 h, 3 Day Curative, read-out: SEPTTR disease control, 3DC, HV activity.
[5] abbreviates: 24 h, 1 Day Protectant, read-out: PUCCRT disease control, 1DP, HV activity.
Where [6] appears, read: 72 h, 3 Day Curative, read-out: PUCCRT disease control, 3DC, HV activity.

In the case of `COc1ccnc(C(=O)N[C@@H](C)C(=O)O[C@@H](C)[C@@H](c2ccccc2)C(C)C)c1O` [Compound 105], the pest or weed control at 100 ppm in assay [1] (setting [3]) was under 80%; in assay [1] (setting [4]) it was under 80%; in assay [2] (setting [5]), over 80%; in assay [2] (setting [6]), under 0%.

In the case of `COc1ccnc(C(=O)N[C@@H](C)C(=O)O[C@@H](C)[C@@H](c2ccccc2)C2CCCC2)c1O` [Compound 106], the pest or weed control at 100 ppm was under 0% in assay [1] (setting [3]), under 0% in assay [1] (setting [4]), under 80% in assay [2] (setting [5]) and under 0% in assay [2] (setting [6]).

Regarding `CCC(CC)[C@@H](c1ccccc1)C(C)OC(=O)[C@H](C)NC(=O)c1nccc(OC)c1O` (some centres unmarked) [Compound 112], the pest or weed control at 100 ppm in assay [1] (setting [3]), in assay [1] (setting [4]), in assay [2] (setting [5]) and in assay [2] (setting [6]) was over 80% throughout.

As to `COc1ccnc(C(=O)N[C@@H](C)C(=O)OC(C)[C@H](c2ccccc2)C2CCCC2)c1O` (some centres unmarked) [Compound 113], the pest or weed control at 100 ppm in assay [1] (setting [3]), in assay [1] (setting [4]), in assay [2] (setting [5]) and in assay [2] (setting [6]) was over 80% throughout.

With `COc1ccnc(C(=S)N[C@@H](C)C(=O)OC(C)[C@H](c2ccccc2)C2CCCC2)c1O` (some centres unmarked) [Compound 114], the pest or weed control at 100 ppm was over 80% in assay [1] (setting [3]), under 80% in assay [1] (setting [4]), over 80% in assay [2] (setting [5]) and under 80% in assay [2] (setting [6]).

Take `COc1ccnc(C(=S)N[C@@H](C)C(=O)O[C@@H](C)[C@@H](c2ccccc2)C2CCCC2)c1O` [Compound 115]: the pest or weed control at 100 ppm was under 80% in assay [1] (setting [3]), under 0% in assay [1] (setting [4]), under 0% in assay [2] (setting [5]) and under 0% in assay [2] (setting [6]).

In the case of `COc1ccnc(C(=O)N[C@@H](C)C(=O)O[C@@H](C)[C@@H](c2ccc(F)cc2C)C(C)C)c1O` [Compound 116], the pest or weed control at 100 ppm in assay [1] (setting [3]) is under 0%; in assay [1] (setting [4]), under 80%; in assay [2] (setting [5]), over 80%; in assay [2] (setting [6]) it was under 0%.

Consider `CCC(CC)[C@H](c1ccc(F)cc1C)[C@H](C)OC(=O)[C@H](C)NC(=O)c1nccc(OC)c1O` [Compound 117], for which the pest or weed control at 100 ppm in assay [1] (setting [3]) was over 80%; in assay [1] (setting [4]), over 80%; in assay [2] (setting [5]), over 80%; in assay [2] (setting [6]), under 0%.

In the case of `COc1ccnc(C(=O)N[C@@H](C)C(=O)O[C@@H](C)[C@@H](c2ccc(F)cc2C)C2CCCC2)c1O` [Compound 118], the pest or weed control at 100 ppm in assay [1] (setting [3]) was under 80%; in assay [1] (setting [4]), under 80%; in assay [2] (setting [5]), over 80%; in assay [2] (setting [6]), under 80%.

With `COc1ccnc(C(=O)N[C@@H](C)C(=O)O[C@@H](C)[C@@H](c2ccc(F)cc2C)C2CCCCC2)c1O` [Compound 119], the pest or weed control at 100 ppm in assay [1] (setting [3]) was over 80%; in assay [1] (setting [4]), over 80%; in assay [2] (setting [5]) it was over 80%; in assay [2] (setting [6]), under 80%.

Regarding `CCC(C)[C@H](c1ccc(F)cc1C)[C@H](C)OC(=O)[C@H](C)NC(=O)c1nccc(OC)c1O` (some centres unmarked) [Compound 120], the pest or weed control at 100 ppm in assay [1] (setting [3]) was under 0%; in assay [1] (setting [4]), under 80%; in assay [2] (setting [5]), over 80%; in assay [2] (setting [6]), under 0%.

As for `COc1ccnc(C(=O)N[C@@H](C)C(=O)O[C@@H](C)[C@@H](c2ccc(F)cc2C)C2CCC2)c1O` [Compound 121], the pest or weed control at 100 ppm in assay [1] (setting [3]) is under 80%; in assay [1] (setting [4]), over 80%; in assay [2] (setting [5]), over 80%; in assay [2] (setting [6]), under 80%.

Regarding `COc1ccnc(C(=O)N[C@@H](C)C(=O)O[C@@H](C)[C@H](c2ccc(F)cc2C)C2CCCC2)c1O` [Compound 122], the pest or weed control at 100 ppm in assay [1] (setting [3]) was over 80%; in assay [1] (setting [4]), under 80%; in assay [2] (setting [5]), over 80%; in assay [2] (setting [6]) it was over 80%.

Regarding `COc1ccnc(C(=O)N[C@@H](C)C(=O)O[C@@H](C)[C@H](c2ccc(F)cc2C)C2CCCCC2)c1O` [Compound 123], the pest or weed control at 100 ppm in assay [1] (setting [3]), in assay [1] (setting [4]), in assay [2] (setting [5]) and in assay [2] (setting [6]) was over 80% each time.

Consider `COc1ccnc(C(=O)N[C@@H](C)C(=O)O[C@@H](C)[C@H](c2ccc(F)cc2C)C(C)C)c1O` [Compound 124], for which the pest or weed control at 100 ppm in assay [1] (setting [3]), in assay [1] (setting [4]), in assay [2] (setting [5]) and in assay [2] (setting [6]) was over 80% in each case.

On to `CCC(CC)[C@@H](c1ccc(F)cc1C)[C@H](C)OC(=O)[C@H](C)NC(=O)c1nccc(OC)c1O` [Compound 125], for which the pest or weed control at 100 ppm in assay [1] (setting [3]) was over 80%; in assay [1] (setting [4]), over 80%; in assay [2] (setting [5]) it was over 80%; in assay [2] (setting [6]) it was under 80%.

As for `CCC(C)[C@@H](c1ccc(F)cc1C)[C@H](C)OC(=O)[C@H](C)NC(=O)c1nccc(OC)c1O` (some centres unmarked) [Compound 126], the pest or weed control at 100 ppm in assay [1] (setting [3]) was over 80%; in assay [1] (setting [4]), over 80%; in assay [2] (setting [5]) it was over 80%; in assay [2] (setting [6]) it was under 80%.

Regarding `COc1ccnc(C(=O)N[C@@H](C)C(=O)O[C@@H](C)[C@H](c2ccc(F)cc2C)C2CCC2)c1O` [Compound 127], the pest or weed control at 100 ppm in assay [1] (setting [3]) is over 80%; in assay [1] (setting [4]), under 80%; in assay [2] (setting [5]), over 80%; in assay [2] (setting [6]), over 80%.

With `COc1ccnc(C(=O)N[C@@H](C)C(=O)O[C@H](C)[C@H](c2ccc(F)cc2C)C2CCCC2)c1O` [Compound 128], the pest or weed control at 100 ppm in assay [1] (setting [3]) was under 0%; in assay [1] (setting [4]), under 80%; in assay [2] (setting [5]), under 80%; in assay [2] (setting [6]) it was under 0%.

For `COc1ccnc(C(=O)N[C@@H](C)C(=O)O[C@H](C)[C@H](c2ccc(F)cc2C)C2CCCCC2)c1O` [Compound 129], the pest or weed control at 100 ppm in assay [1] (setting [3]) is over 80%; in assay [1] (setting [4]), under 80%; in assay [2] (setting [5]) it was over 80%; in assay [2] (setting [6]) it was under 0%.

With `COc1ccnc(C(=O)N[C@@H](C)C(=O)O[C@H](C)[C@H](c2ccc(F)cc2C)C(C)C)c1O` [Compound 130], the pest or weed control at 100 ppm is under 80% in assay [1] (setting [3]), under 80% in assay [1] (setting [4]), over 80% in assay [2] (setting [5]) and under 80% in assay [2] (setting [6]).

As for `COc1ccnc(C(=O)N[C@@H](C)C(=O)O[C@@H](C)[C@@H](c2ccc(C)cc2C)C(C)C)c1O` [Compound 131], the pest or weed control at 100 ppm was under 80% in assay [1] (setting [3]), under 80% in assay [1] (setting [4]), over 80% in assay [2] (setting [5]) and over 80% in assay [2] (setting [6]).

As for `COc1ccnc(C(=O)N[C@@H](C)C(=O)O[C@@H](C)[C@@H](c2ccc(C)cc2C)C2CCCC2)c1O` [Compound 132], the pest or weed control at 100 ppm in assay [1] (setting [3]) is over 80%; in assay [1] (setting [4]) it was under 80%; in assay [2] (setting [5]), over 80%; in assay [2] (setting [6]) it was over 80%.

`COc1ccnc(C(=O)N[C@@H](C)C(=O)O[C@@H](C)[C@@H](c2ccc(C)cc2C)C2CCCCC2)c1O` [Compound 133]: the pest or weed control at 100 ppm was over 80% in assay [1] (setting [3]), under 80% in assay [1] (setting [4]), over 80% in assay [2] (setting [5]) and under 80% in assay [2] (setting [6]).

Consider `CCC(C)[C@H](c1ccc(C)cc1C)[C@H](C)OC(=O)[C@H](C)NC(=O)c1nccc(OC)c1O` (some centres unmarked) [Compound 134], for which the pest or weed control at 100 ppm in assay [1] (setting [3]), in assay [1] (setting [4]), in assay [2] (setting [5]) and in assay [2] (setting [6]) was under 80% each time.

With `COc1ccnc(C(=O)N[C@@H](C)C(=O)O[C@@H](C)[C@H](c2ccc(F)cc2)C(C)C)c1O` [Compound 135], the pest or weed control at 100 ppm in assay [1] (setting [3]) is under 80%; in assay [1] (setting [4]) it was over 80%; in assay [2] (setting [5]), under 80%; in assay [2] (setting [6]) it was over 80%.
